PubChem BioAssay (NCI)
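Step 1: Grow cells in 96-well plates. Step 2: Expose to compound for 48 hours at 5 concentrations. Step 3: Interpolate endpoints linearly; if unreached, use highest concentration. GI50: concentration for 50% inhibition of growth. TGI marks complete inhibition of growth.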

How the values were obtained:
Experiment in all cases: NCI anticancer screen, dose series, 48 h
HS 578T breast = tested on: HS 578T breast
PC-3 prostate = tested on: PC-3 prostate
NCI/ADR-RES ovarian = tested on: NCI/ADR-RES ovarian
MDA-MB-231 breast = tested on: MDA-MB-231 breast
HOP-18 NSCLC = tested on: HOP-18 NSCLC
LXFL 529 NSCLC = tested on: LXFL 529 NSCLC
MDA-N = tested on: MDA-N

CN1CCC(n2cnc(-c3ccc(F)cc3)c2-c2ccnc(NCCO)n2)CC1
GI50 (HS 578T breast): > 25 µM
TGI (HS 578T breast): > 25 µM
GI50 (PC-3 prostate): > 25 µM
TGI (PC-3 prostate): > 25 µM
GI50 (NCI/ADR-RES ovarian): > 25 µM
TGI (NCI/ADR-RES ovarian): > 25 µM
GI50 (MDA-MB-231 breast): > 25 µM
TGI (MDA-MB-231 breast): > 25 µM

Nc1ccccc1C#C/C=C\C#Cc1cccs1
GI50 (HS 578T breast): 15.2 µM
TGI (HS 578T breast): 41.8 µM
GI50 (PC-3 prostate): 4.48 µM
TGI (PC-3 prostate): 27.3 µM
GI50 (NCI/ADR-RES ovarian): 8.69 µM
TGI (NCI/ADR-RES ovarian): 27.7 µM
TGI (MDA-MB-231 breast): 4.47 µM

COc1cccc(-n2ncc3c(N/N=C/c4ccc(C(=O)NCCN(C)C)cc4)ncnc32)c1
GI50 (HS 578T breast): 0.57 µM
TGI (HS 578T breast): 6 µM
GI50 (PC-3 prostate): 2.97 µM
TGI (PC-3 prostate): 6.47 µM
GI50 (NCI/ADR-RES ovarian): 5.25 µM
TGI (NCI/ADR-RES ovarian): 11.2 µM
GI50 (MDA-MB-231 breast): 3.4 µM
TGI (MDA-MB-231 breast): 7.23 µM

COC(=O)[C@H](C[C@H](Cc1ccccc1)NC(=O)c1csc([C@@H](C[C@H](C(C)C)N(C)C(=O)[C@@H](NC(=O)[C@H]2CCCCN2C)C(C)C)OC(C)=O)n1)NC(=O)OCc1ccccc1
GI50 (HS 578T breast): < 0.0009 µM
TGI (HS 578T breast): > 4.93 µM
GI50 (PC-3 prostate): < 0.0009 µM
TGI (PC-3 prostate): > 9 µM
GI50 (NCI/ADR-RES ovarian): 0.0333 µM
TGI (NCI/ADR-RES ovarian): 1.52 µM
GI50 (MDA-MB-231 breast): 0.00108 µM
TGI (MDA-MB-231 breast): > 4.9 µM

C1C[OH+]CC[OH+]CCNCC[OH+]CC[OH+]CCN1.N.[Cl-].[Pt+4]
GI50 (HOP-18 NSCLC): 19.9 µM
TGI (HOP-18 NSCLC): > 100 µM
GI50 (LXFL 529 NSCLC): 18.2 µM
TGI (LXFL 529 NSCLC): 64 µM

O=C1/C(=C\c2c[nH]c3ccccc23)c2ccccc2N1c1c(Cl)cccc1Cl
GI50 (PC-3 prostate): 1.35 µM
TGI (PC-3 prostate): 2.96 µM
GI50 (MDA-MB-231 breast): 1.59 µM
TGI (MDA-MB-231 breast): 3.21 µM

CC[C@@H](C(=O)O)C1CC[C@H](C)C([C@@H](C)[C@H](O)[C@H](C)C(=O)[C@H](CC)C2O[C@]3(C=C[C@@H](O)[C@]4(CC[C@@](C)(C5CC[C@](O)(CC)[C@H](C)O5)O4)O3)[C@H](C)C[C@@H]2C)O1 (stereo partly specified)
GI50 (HS 578T breast): 0.0767 µM
TGI (HS 578T breast): 12.4 µM
GI50 (PC-3 prostate): 0.0657 µM
TGI (PC-3 prostate): 45.8 µM
GI50 (NCI/ADR-RES ovarian): 0.443 µM
TGI (NCI/ADR-RES ovarian): 34.7 µM
GI50 (MDA-MB-231 breast): 0.863 µM
TGI (MDA-MB-231 breast): 5.51 µM

OC(c1cc(-c2ccccc2)nc2ccc(Cl)cc12)C1CCCCN1 (stereo unspecified)
GI50 (HS 578T breast): 3.37 µM
TGI (HS 578T breast): 11.7 µM
GI50 (PC-3 prostate): 2.21 µM
TGI (PC-3 prostate): 4.79 µM
GI50 (NCI/ADR-RES ovarian): 2.25 µM
TGI (NCI/ADR-RES ovarian): 5.35 µM
GI50 (MDA-MB-231 breast): 1.78 µM
TGI (MDA-MB-231 breast): 3.94 µM

COc1cc(C2CC(c3ccc4c(c3)OCO4)=NN2C=O)cc(OC)c1OC (stereo unspecified)
GI50 (HS 578T breast): 2.43 µM
TGI (HS 578T breast): 28.5 µM
GI50 (PC-3 prostate): 4.92 µM
TGI (PC-3 prostate): > 100 µM
GI50 (NCI/ADR-RES ovarian): 1.13 µM
TGI (NCI/ADR-RES ovarian): > 20.1 µM
GI50 (MDA-MB-231 breast): > 25.3 µM
TGI (MDA-MB-231 breast): > 100 µM

CC#C[C@]1(O)CC[C@H]2[C@@H]3CCC4=CC(=O)CCC4=C3[C@@H](c3ccc4c(c3)OCO4)C[C@@]21C
GI50 (HS 578T breast): 101 µM
TGI (HS 578T breast): 537 µM
GI50 (PC-3 prostate): 39.7 µM
TGI (PC-3 prostate): 340 µM
GI50 (NCI/ADR-RES ovarian): 92.4 µM
TGI (NCI/ADR-RES ovarian): > 1000 µM
GI50 (MDA-MB-231 breast): 90.1 µM
TGI (MDA-MB-231 breast): 327 µM

COc1ccc(/C=C(/C#N)C(N)=O)cc1OC
TGI (MDA-N): > 100 µM
TGI (HS 578T breast): > 100 µM
TGI (PC-3 prostate): > 100 µM
TGI (NCI/ADR-RES ovarian): > 100 µM
TGI (MDA-MB-231 breast): > 100 µM

COc1ccc(/C(C#N)=C/c2ccccc2OC)cc1
GI50 (HS 578T breast): 14.3 µM
TGI (HS 578T breast): > 100 µM
TGI (PC-3 prostate): > 100 µM
GI50 (NCI/ADR-RES ovarian): 3.66 µM
TGI (NCI/ADR-RES ovarian): > 100 µM
GI50 (MDA-MB-231 breast): 7.02 µM
TGI (MDA-MB-231 breast): > 100 µM

CCCCC(CC)CN=C(N)NC(N)=NCCCCCCN=C(N)NC(N)=NCC(CC)CCCC (stereo unspecified)
GI50 (NCI/ADR-RES ovarian): 10.4 µM
TGI (NCI/ADR-RES ovarian): 33.6 µM
GI50 (MDA-MB-231 breast): 1.85 µM
TGI (MDA-MB-231 breast): 3.65 µM

COc1ccc(-c2c3c(N)nc(-c4ccncc4)nc3nc3c2c(C)nn3-c2ccccc2)cc1
GI50 (HS 578T breast): 16.5 µM
TGI (HS 578T breast): > 100 µM
GI50 (PC-3 prostate): > 100 µM
TGI (PC-3 prostate): > 100 µM
GI50 (NCI/ADR-RES ovarian): 19.7 µM
TGI (NCI/ADR-RES ovarian): > 100 µM
GI50 (MDA-MB-231 breast): 3.71 µM
TGI (MDA-MB-231 breast): 46.5 µM

CC1OC(O[C@@H]2OC=C(C=O)[C@@]3(O)CC[C@H](C)[C@@H]23)C(O)C(O)C1O (stereo partly specified)
TGI (MDA-N): > 100 µM
TGI (HS 578T breast): > 100 µM
TGI (PC-3 prostate): > 100 µM
TGI (NCI/ADR-RES ovarian): > 100 µM
TGI (MDA-MB-231 breast): > 100 µM

COc1ccc(/C=C2\CCCC3=C2N=C2SC(C)=NN2C3c2ccc(OC)c(OC)c2)cc1OC (stereo unspecified)
GI50 (HS 578T breast): 30.4 µM
TGI (HS 578T breast): > 100 µM
GI50 (PC-3 prostate): 25.8 µM
TGI (PC-3 prostate): > 100 µM
GI50 (NCI/ADR-RES ovarian): 4.71 µM
TGI (NCI/ADR-RES ovarian): > 100 µM
GI50 (MDA-MB-231 breast): 25.1 µM
TGI (MDA-MB-231 breast): > 100 µM

COc1ccc(-c2ccc(/C=N/n3c(COc4ccc(Cl)cc4Cl)nn(CN4CCOCC4)c3=S)o2)c([N+](=O)[O-])c1
GI50 (PC-3 prostate): 18.6 µM
TGI (PC-3 prostate): 50.6 µM
GI50 (NCI/ADR-RES ovarian): 21.1 µM
TGI (NCI/ADR-RES ovarian): 58.7 µM

Cc1ccc(N=Nc2c(O)c(C(=O)O)cc3ccccc23)cc1C
TGI (HS 578T breast): > 100 µM
TGI (PC-3 prostate): > 100 µM
TGI (NCI/ADR-RES ovarian): > 100 µM
TGI (MDA-MB-231 breast): > 100 µM

CN(C)C(=O)OC(Cn1cncn1)c1ccc(Cl)cc1Cl (stereo unspecified)
TGI (HOP-18 NSCLC): > 100 µM
TGI (LXFL 529 NSCLC): > 100 µM

CC(CCC(=O)O)[C@H]1CCC2[C@@H]3CC[C@@H]4CC(O)CC[C@]4(C)C3CC[C@@]21C (stereo partly specified)
GI50 (MDA-N): 60.6 µM
TGI (MDA-N): > 100 µM
GI50 (PC-3 prostate): 26.2 µM
TGI (PC-3 prostate): 72.3 µM
GI50 (NCI/ADR-RES ovarian): 54.3 µM
TGI (NCI/ADR-RES ovarian): > 100 µM
GI50 (MDA-MB-231 breast): 58.7 µM
TGI (MDA-MB-231 breast): > 100 µM

Cn1cc(-c2ccc3occ(-c4cccc(-c5ccncc5)c4)c3n2)cn1
GI50 (HS 578T breast): 0.377 µM
TGI (HS 578T breast): 6.18 µM
GI50 (PC-3 prostate): 0.961 µM
TGI (PC-3 prostate): > 100 µM
GI50 (NCI/ADR-RES ovarian): 0.368 µM
TGI (NCI/ADR-RES ovarian): > 100 µM
GI50 (MDA-MB-231 breast): 1.62 µM
TGI (MDA-MB-231 breast): > 100 µM

COc1ccc(-c2n/c(=C\c3c(O)[nH]c4ccc(OC)cc34)cc3c2=Nc2ccccc2-3)cc1
GI50 (HS 578T breast): 1.94 µM
TGI (HS 578T breast): 4.82 µM
GI50 (PC-3 prostate): 22.1 µM
TGI (PC-3 prostate): > 100 µM
GI50 (MDA-MB-231 breast): 1.73 µM
TGI (MDA-MB-231 breast): 4.27 µM

COc1ccc2sc3c(NCCCN(C)C)nc4ccccc4c3c(=O)c2c1
GI50 (HS 578T breast): 1.49 µM
TGI (HS 578T breast): 3.26 µM
GI50 (PC-3 prostate): 1.62 µM
TGI (PC-3 prostate): 3.22 µM
GI50 (NCI/ADR-RES ovarian): 1.64 µM
TGI (NCI/ADR-RES ovarian): 3.28 µM
GI50 (MDA-MB-231 breast): 1.38 µM
TGI (MDA-MB-231 breast): 2.8 µM

O=C(/C=C/c1ccccc1)c1cc(Br)ccc1O
TGI (MDA-N): 33.3 µM
TGI (HS 578T breast): 59.3 µM
TGI (PC-3 prostate): 33.7 µM
TGI (NCI/ADR-RES ovarian): 34.9 µM
TGI (MDA-MB-231 breast): 42.5 µM

Cc1ccc(-c2cn3ccnc3c(-c3ccc(Cl)cc3)n2)cc1
GI50 (HS 578T breast): 0.115 µM
TGI (HS 578T breast): 9.39 µM
GI50 (PC-3 prostate): 0.356 µM
TGI (PC-3 prostate): > 100 µM
GI50 (NCI/ADR-RES ovarian): 0.102 µM
TGI (NCI/ADR-RES ovarian): > 30.6 µM
GI50 (MDA-MB-231 breast): 0.506 µM
TGI (MDA-MB-231 breast): 50.1 µM

CCCCCCCCCCC(C(=O)O)C1(C(=O)O)CCC(=O)O1 (stereo unspecified)
TGI (MDA-N): > 100 µM
TGI (HS 578T breast): > 100 µM
TGI (PC-3 prostate): > 100 µM
TGI (NCI/ADR-RES ovarian): > 100 µM
TGI (MDA-MB-231 breast): > 100 µM
